Laboratory results published in the Kinase Knowledgebase extract (Sharma et al. 2016).

Assays:
EGFR (human) [1] = molecular target: EGFR (human) (UniProt P00533); settings: a431
EGFR (human) [2] = molecular target: EGFR (human) (UniProt P00533); settings: A431

Chain of EGFR (human) (P00533 whole entry, looked up): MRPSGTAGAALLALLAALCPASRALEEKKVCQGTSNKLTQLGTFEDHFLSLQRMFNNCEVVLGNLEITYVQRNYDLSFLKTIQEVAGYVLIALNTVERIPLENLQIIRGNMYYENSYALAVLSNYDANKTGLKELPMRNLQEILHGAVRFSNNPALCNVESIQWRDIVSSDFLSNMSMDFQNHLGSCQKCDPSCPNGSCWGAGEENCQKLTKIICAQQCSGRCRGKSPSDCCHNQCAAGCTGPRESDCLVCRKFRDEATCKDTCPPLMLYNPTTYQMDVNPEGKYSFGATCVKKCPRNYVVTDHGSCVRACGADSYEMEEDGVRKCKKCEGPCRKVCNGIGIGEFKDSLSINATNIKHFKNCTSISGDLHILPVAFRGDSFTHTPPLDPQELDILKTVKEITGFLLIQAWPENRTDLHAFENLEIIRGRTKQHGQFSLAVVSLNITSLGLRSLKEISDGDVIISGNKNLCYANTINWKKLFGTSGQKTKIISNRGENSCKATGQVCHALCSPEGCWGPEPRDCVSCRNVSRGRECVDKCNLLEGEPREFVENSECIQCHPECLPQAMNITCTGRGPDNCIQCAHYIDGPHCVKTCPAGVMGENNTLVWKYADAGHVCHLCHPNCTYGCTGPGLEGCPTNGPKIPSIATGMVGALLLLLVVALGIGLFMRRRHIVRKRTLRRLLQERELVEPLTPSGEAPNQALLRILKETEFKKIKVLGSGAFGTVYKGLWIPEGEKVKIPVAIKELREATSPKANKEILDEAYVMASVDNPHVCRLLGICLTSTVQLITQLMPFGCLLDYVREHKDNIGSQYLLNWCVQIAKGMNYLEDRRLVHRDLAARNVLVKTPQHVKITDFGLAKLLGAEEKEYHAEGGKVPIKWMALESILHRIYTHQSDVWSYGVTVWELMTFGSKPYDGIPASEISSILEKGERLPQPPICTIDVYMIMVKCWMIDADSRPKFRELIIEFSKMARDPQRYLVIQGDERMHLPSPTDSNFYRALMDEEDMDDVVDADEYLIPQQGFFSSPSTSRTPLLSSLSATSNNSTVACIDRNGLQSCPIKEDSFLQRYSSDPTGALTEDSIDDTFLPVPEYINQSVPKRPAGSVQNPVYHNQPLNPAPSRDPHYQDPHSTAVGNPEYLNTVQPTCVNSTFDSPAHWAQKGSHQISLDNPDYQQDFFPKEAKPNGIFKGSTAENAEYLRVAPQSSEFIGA

Structure (SMILES) | IC50 (EGFR (human) [1]) [µM] | IC50 (EGFR (human) [2]) [µM]
COc1cc2nccc(Nc3ccc(OCc4ccccc4)cc3)c2cc1OC | > 50 | > 50
c1ccc(Oc2ccc(Nc3ccnc4ccccc34)cc2)cc1 | 31 | > 50
c1ccc(COc2ccc(Nc3ccnc4ccccc34)cc2)cc1 | > 50 | > 50
COc1cc2ncnc(Nc3ccc(OCc4ccccc4)c(OC)c3)c2cc1OC | 6.9 | 1.6
COc1ccc2ncnc(Nc3ccc(OCc4ccccc4)cc3)c2c1 | 12 | 15
COc1cc2ncnc(Nc3ccc(Oc4ccccc4)cc3)c2cc1OC | 30 | 8
c1ccc(COc2cccc(Nc3ncnc4ccccc34)c2)cc1 | 50 | > 50
c1csc(COc2ccc(Nc3ncnc4ccccc34)cc2)c1 | > 50 | > 50
c1ccc(COc2ccc(Oc3ncnc4ccccc34)cc2)cc1 | > 50 | > 50
COc1cc2ncnc(Nc3ccc(OCc4ccccc4)cc3)c2cc1OC | 50 | 5
COc1ccc2c(Nc3ccc(OCc4ccccc4)cc3)ncnc2c1 | > 50 | 65
COc1cccc2ncnc(Nc3ccc(OCc4ccccc4)cc3)c12 | 28 | 11
Clc1ccc2c(Nc3ccc(OCc4ccccc4)cc3)ncnc2c1 | 50 | > 30
COc1cc2nccc(Nc3ccc(N4C(=O)c5ccc(Cl)cc5C4=O)c(C)c3)c2cc1OC | > 50 | 50
COc1cc2ncnc(Nc3ccc(Nc4ccccc4)cc3)c2cc1OC | > 50 | 15
Cc1cc2ncnc(Nc3ccc(OCc4ccccc4)cc3)c2cc1C | > 50 | > 30
Brc1ccc2ncnc(Nc3ccc(OCc4ccccc4)cc3)c2c1 | 29 | 10
O=[N+]([O-])c1ccc2ncnc(Nc3ccc(Oc4ccccc4)cc3)c2c1 | > 50 | > 50
